Measured values: patent publication US7122307B2, “High throughput biological heart rate monitor that is molecularly determined” (The Trustees of Columbia University in the City of New York, priority 2001, dated 2006)

Tests used:
[1] = test system: HCN2 over-expressing cell culture; test: Spontaneous rate (action potential recording) of AdHCN2 infected culture during drug superfusion; format: cell-based, rat; details: for spontaneous rate during drug exposure: AdHCN2 infected culture, same culture during superfusion with drug, control records: 48 (isoproterenol), 54 (carbachol), 96 (ZD-7288) beats/min; for effect on heart rate of the culture (in words): HCN2 over-expressing cell culture
From the text: Adult rats were anesthetized with ketamine-xylazine before cardiectomy, and neonatal rats decapitated, in accordance with the Institutional Animal Care and Use Committee protocols of Columbia University. For preparing cell cultures of newborn ventricles, a standard trypsin dissociation method was employed (21). The cells were preplated to reduce fibroblast proliferation, cultured initially in serum-containing medium (except when being transfected with plasmids as described below) and then switched to a serum free medium (SFM) after 24 hours. Action potential studies were conducted on 4 day old monolayer cultures plated directly onto fibronectin coated 9×22 mm glass coverslips. For voltage clamp experiments, 4–6 day old monolayer cultures were resuspended by brief (2–3 min) exposure to 0.25% trypsin, then the cells replated onto fibronectin-coated coverslips and studied within 2–8 hours.
For adult rat ventricular myocytes, AdHCN2 infection was carried out 2–3 hours after the isolated cells were plated onto coverslips. For neonatal cells, the infection was done on the monolayer culture 1–3 days after plating. In either case, the culture medium was removed from the dishes (35-mm) and the inoculum of 0.2–0.3 ml/dish was added containing AdHCN2. The value of m.o.i. (multiplicity of infection—the ratio of viral units to cells) was 15–100. The inoculum was dispersed over the cells every 20 min by gently “tilting” the dishes so that the cells were evenly exposed to the viral particles. The dishes were kept at 37° C. in a CO2 incubator during the adsorption period of two hours, then the inoculum was discarded and the dishes were washed and refilled with the appropriate culture medium. The dishes remained in the incubator for 24–48 hours before electrophysiological experiments were conducted. In some experiments, an adenoviral construct for GFP (AdGFP) was employed.
The whole-cell voltage clamp technique was employed to record native If or expressed IHCN2 or IHCN4. Action potentials were recorded in current clamp mode, again using a whole cell patch electrode/Experiments were carried out on cells supervised at 35° C. Extracellular solution contained (mmol/L): NaCl, 140; NaOH, 2.3; MgCl2, 1; KCl, 5.4; CaCl2, 1.0; HEPES, 5; glucose, 10; pH 7.4. To record from myocytes expressing native currents (If) myocytes expressing HCN2 (IHCN2) or HCN4 (IHCN4), [K^+]0 was increased to 10 mmol/L, and MnCl2 (2 mmol/L) and BaCl2 (4 mmol/L) added to the superfusate to eliminate calcium and inward rectifier (IK1) currents. In some experiments CsCl (4 mmol/L) was used extracellularly to identify the pacemaker current as the Cs-sensitive current. The patch pipette solution included (mmol/L): aspartic acid, 130; KOH, 146; NaCl, 10; CaCl2, 2; EGTA-KOH, 5; Mg-ATP, 2; HEPES-KOH, 10, pH 7.2. Where indicated, 10 μmol/L cAMP was included in the pipette solution. A fast solution changing apparatus expedited the experimental protocols. The pipette resistance was typically […]. An Axopatch-200B amplifier and pClampS software (Axon Instruments) were used for acquisition and data analysis. The pacemaker current (If, IHCN2 or IHCN4) was defined as the time-dependent component taken at the end of a hyperpolarizing step to voltages in the range of −35 to −145 mV, while the holding potential was −35 mV unless otherwise indicated. For If and IHCN2 measurements, the hyperpolarizing test pulses were 3 or 6 sec long throughout the voltage range. To accurately record steady-state currents for the more slowly activating IHCN4, the test voltages varied in length from 6 sec at −125 mV to as long as 60 sec at −55 mV. When recording tail currents, the test pulses were followed by an 8-sec voltage step to −125 mV. In all pacemaker current protocols, each episode ended with a pulse to −5 mV for 0.5 sec to insure full deactivation.
The normal cardiac pacemaker beats independently but is regulated by neurotransmitters released from sympathetic and parasympathetic neurons. […]

[2] = target: T1, expressed HCN2 current (Mus musculus, UniProt O88703); test: Whole-cell voltage clamp: shift of the activation relation of expressed HCN2 current in ventricular myocytes; format: cell-based; details: for shift of the voltage dependence of HCN2: saturating cAMP (10 μmol/L) in the pipette
T1 construct: expressed in transfected cells; host or cells: neonatal and adult rat ventricular myocytes in primary culture, infected with adenovirus AdHCN2 (or lipofectin-transfected with pCI-mHCN2)
T1 sequence (O88703 1-863): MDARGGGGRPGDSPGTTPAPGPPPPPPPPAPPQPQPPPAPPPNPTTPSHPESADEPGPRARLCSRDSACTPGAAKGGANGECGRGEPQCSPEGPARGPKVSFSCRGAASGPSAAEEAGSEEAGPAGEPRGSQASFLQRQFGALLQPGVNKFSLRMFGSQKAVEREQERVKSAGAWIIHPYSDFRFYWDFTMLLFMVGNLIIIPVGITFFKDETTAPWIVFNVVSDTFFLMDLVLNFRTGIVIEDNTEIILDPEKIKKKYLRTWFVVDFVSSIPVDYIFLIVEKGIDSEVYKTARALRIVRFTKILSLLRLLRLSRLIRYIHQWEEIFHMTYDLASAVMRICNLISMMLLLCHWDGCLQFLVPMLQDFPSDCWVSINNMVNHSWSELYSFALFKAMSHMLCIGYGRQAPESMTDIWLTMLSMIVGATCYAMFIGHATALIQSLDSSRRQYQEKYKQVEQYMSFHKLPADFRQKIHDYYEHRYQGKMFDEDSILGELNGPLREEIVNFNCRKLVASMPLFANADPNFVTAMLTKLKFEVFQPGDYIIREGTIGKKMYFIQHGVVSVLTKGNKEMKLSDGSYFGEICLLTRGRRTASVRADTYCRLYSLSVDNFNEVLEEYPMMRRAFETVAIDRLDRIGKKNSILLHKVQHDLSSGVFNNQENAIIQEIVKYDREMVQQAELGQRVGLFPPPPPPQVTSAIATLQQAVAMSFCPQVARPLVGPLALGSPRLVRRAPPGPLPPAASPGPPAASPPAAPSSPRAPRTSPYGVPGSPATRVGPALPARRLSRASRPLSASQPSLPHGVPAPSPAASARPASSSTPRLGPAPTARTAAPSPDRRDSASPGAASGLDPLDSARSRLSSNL
Procedure: The whole-cell voltage clamp technique was employed to record native If or expressed IHCN2 or IHCN4. Action potentials were recorded in current clamp mode, again using a whole cell patch electrode/Experiments were carried out on cells supervised at 35° C. Extracellular solution contained (mmol/L): NaCl, 140; NaOH, 2.3; MgCl2, 1; KCl, 5.4; CaCl2, 1.0; HEPES, 5; glucose, 10; pH 7.4. […] In some experiments CsCl (4 mmol/L) was used extracellularly to identify the pacemaker current as the Cs-sensitive current. […] Where indicated, 10 μmol/L cAMP was included in the pipette solution. A fast solution changing apparatus expedited the experimental protocols. The pipette resistance was typically 1–3 M. An Axopatch-200B amplifier and pClampS software (Axon Instruments) were used for acquisition and data analysis. […] For If and IHCN2 measurements, the hyperpolarizing test pulses were 3 or 6 sec long throughout the voltage range. […] In all pacemaker current protocols, each episode ended with a pulse to −5 mV for 0.5 sec to insure full deactivation.
The activation relation of the native or expressed current can be determined from the steady-state I-V relation.

[3] = test system: native pacemaker current; details: sinus node; cited from earlier work

Compound | spontaneous rate during drug exposure [1] | effect on heart rate of the culture (in words) [1] | shift of the voltage dependence of HCN2 ([2]; adult myocytes infected with AdHCN2) | shift of the voltage dependence of HCN2 ([2]; neonate myocytes infected with AdHCN2) | positive shift of the activation curve of expressed HCN2 current ([2]; threshold concentration of isoproterenol, neonatal ventricular myocyte, two-step voltage protocol, one cell) | threshold concentration on native pacemaker current [3]
CCN(c1ccccc1)c1cc(=NC)n(C)c(C)n1.Cl [ZD-7288] | 78 beats/min | slows the rate |  |  |  | 
Nc1ncnc2c1ncn2[C@@H]1O[C@@H]2COP(=O)(O)O[C@H]2[C@H]1O [cAMP, cyclic adenosine monophosphate] |  |  | 14 mV | 17 mV |  | 
C[N+](C)(C)CCOC(N)=O [carbachol] | 45 beats/min | decrease in heart rate |  |  |  | 
CC(C)NCC(O)c1ccc(O)c(O)c1 (stereo not shown) [isoproterenol] | 63 beats/min | increase in heart rate |  |  | approximately 5 mV | approximately 1 nM
